# Measured values: patent US7915291B2, “Hepatitis C virus inhibitors” (Bristol-Myers Squibb Company, priority 2002, dated 2011)
# Experiments:
# [1] = target: T1, HCV NS3/4A protease complex, H77C strain (Hepatitis C virus genotype 1a, UniProt P27958, C1454S); assay: Recombinant HCV NS3/4A protease complex FRET peptide assay (H77C strain); type: biochemical, HCV genotype 1a
# T1 construct: recombinant HCV NS3/4A protease complex (amino acids 1027 to 1711); inferred from pET21b vector and Ni-NTA purification; made in house; host or cells: Escherichia coli BL21 (DE3), pET21b
# T1 sequence (P27958 1027-1657 C1454S): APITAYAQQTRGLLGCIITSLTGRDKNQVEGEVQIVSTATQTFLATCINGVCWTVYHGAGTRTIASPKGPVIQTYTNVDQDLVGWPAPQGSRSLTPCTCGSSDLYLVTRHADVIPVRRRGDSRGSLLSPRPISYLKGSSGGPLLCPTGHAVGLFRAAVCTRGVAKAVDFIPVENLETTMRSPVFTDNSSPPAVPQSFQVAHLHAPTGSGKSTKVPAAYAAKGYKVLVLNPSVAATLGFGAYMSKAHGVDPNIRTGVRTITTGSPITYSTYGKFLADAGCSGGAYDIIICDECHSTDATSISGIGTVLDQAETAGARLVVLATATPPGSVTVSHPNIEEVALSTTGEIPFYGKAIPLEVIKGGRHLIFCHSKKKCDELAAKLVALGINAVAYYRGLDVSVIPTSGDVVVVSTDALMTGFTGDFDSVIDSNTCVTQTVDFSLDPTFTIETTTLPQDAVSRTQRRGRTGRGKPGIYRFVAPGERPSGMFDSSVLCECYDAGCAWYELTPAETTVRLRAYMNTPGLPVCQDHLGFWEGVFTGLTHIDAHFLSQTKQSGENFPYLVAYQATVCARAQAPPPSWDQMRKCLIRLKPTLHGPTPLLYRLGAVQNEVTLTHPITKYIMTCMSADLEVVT
# T1 sequence (P27958 1658-1714 partner, looked up, stated change not applied): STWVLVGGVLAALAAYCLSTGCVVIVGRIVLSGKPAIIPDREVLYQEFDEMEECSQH
# Text: Recombinant HCV NS3/4A Protease Complex FRET Peptide Assay
# The purpose of this in vitro assay was to measure the inhibition of HCV NS3 protease complexes, derived from the BMS, H77C or J416S strains, as described below, by compounds of the present invention. This assay provides an indication of how effective compounds of the present invention would be in inhibiting HCV proteolytic activity.
# Serum from an HCV-infected patient was obtained from Dr. T. Wright, San Francisco Hospital. An engineered full-length cDNA (compliment deoxyribonucleic acid) template of the HCV genome (BMS strain) was constructed from DNA fragments obtained by reverse transcription-PCR(RT-PCR) of serum RNA (ribonucleic acid) and using primers selected on the basis of homology between other genotype 1a strains. From the determination of the entire genome sequence, a genotype 1a was assigned to the HCV isolate according to the classification of Simmonds et al. (See P Simmonds, Kans. Rose, S Graham, S W Chan, F McOmish, B C Dow, E A Follett, P L Yap and H Marsden, J. Clin. Microbiol., 31(6), 1493-1503 (1993)). […]
# [2] = target: T2, human leukocyte elastase (HLE) (Homo sapiens, UniProt P08246); assay: Specificity assay, HLE; type: biochemical; conditions: 2 hr pre-incubation
# T2 construct: purchased Sigma
# T2 sequence (P08246 30-267): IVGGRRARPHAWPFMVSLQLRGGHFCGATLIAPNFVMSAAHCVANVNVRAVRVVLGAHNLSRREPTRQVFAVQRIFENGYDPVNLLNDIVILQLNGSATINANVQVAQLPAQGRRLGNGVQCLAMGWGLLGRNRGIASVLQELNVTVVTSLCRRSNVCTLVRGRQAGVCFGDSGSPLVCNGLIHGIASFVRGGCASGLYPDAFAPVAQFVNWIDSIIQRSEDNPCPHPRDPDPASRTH
# Procedure: The specificities of compounds of the present invention were determined against a variety of serine proteases: human leukocyte elastase (HLE), porcine pancreatic elastase (PPE) and human pancreatic chymotrypsin and one cysteine protease: human liver cathepsin B. In all cases a 96-well plate format protocol using colorimetric p -nitroaniline (pNA) substrate specific for each enzyme was used as described previously (Patent WO 00/09543) with some modifications to the serine protease assays. All enzymes were purchased from Sigma while the substrates were from Bachem.
# Each assay included a 2 hr enzyme-inhibitor pre-incubation at RT followed by addition of substrate and hydrolysis to ˜30% conversion as measured on a Spectramax Pro microplate reader. Compound concentrations varied from 100 to 0.4 μM depending on their potency. […]
# The percentage of inhibition was calculated using the formula: [1−((UVinh−UVblank)/(UVctl−UVblank))]×100 […]
smiles,measurement,setting,value
C=C[C@@H]1C[C@]1(NC(=O)[C@@H]1C[C@@H](Oc2nc(C3CC3)cc3ccccc23)CN1C(=O)[C@@H](NC(=O)OC(C)(C)C)C(C)(C)C)C(=O)NS(=O)(=O)C1CC1 [Compound 34],IC50,[1],3 nM
same,IC50,[2],> 100000 nM
